Test results: patent US20160166572A1, “BENEFICIAL EFFECTS OF Lp-PLA2 INHIBITORS IN TREATMENT OF DIABETIC RETINOPATHY AND AGE-RELATED MACULAR DEGENERATION” (Rowan University, priority 2014, published 2016)

What was measured:
[1] = test system: porcine retina; test: Cell number in retinal GCL and INL by counting DAPI-positive nuclei, DMHC pigs; assay type: in vivo, pig; conditions: Darapladib 10 mg/kg/d orally, 24 weeks, FIG. 3D-E
Experimental: Briefly, after induction of diabetes by a single injection of Streptozotocin, animals were fed a high cholesterol diet. After a month of DMHC induction and acclimation, animals were randomly segregated to untreated DMHC and Darapladib-treated DMHC groups. Darapladib-treated pigs received 10 mg/kg/d of Darapladib orally. Three of the pigs were spared from DMHC induction and served as age-matched, non-DMHC normal controls. Twenty four weeks after acclimation, animals were euthanized and their brains and eyes were immediately removed. Brains were divided anteroposteriorly into anterior, middle and posterior regions. For each of these brain regions, 2-3 tissue blocks were generated for routine tissue fixation (10% formalin) or freezing and histological processing. The anterior cortical region comprised of anterior ⅔ of frontal lobe and anterior ⅓ of temporal lobe. […] Cells positive for GFAP were counted throughout the whole thickness of the retina, and then quantified using ImagePro7.0 (Media Cybernetics, Silver Spring, Md.). Briefly, a 300×300 pixel square area was randomly made in each retinal section in three contiguous locations across the retina and the positive GFAP area was determined per total area using a fixed threshold. […] Cell number was determined by counting the DAPI-positive nuclei in a fixed area. […]

[2] = test system: claudin5; test: Claudin5 protein expression in BVECs of cerebral cortex (IHC, MATLAB), DMHC pigs; assay type: in vivo, pig; conditions: Darapladib 10 mg/kg/d orally, 24 weeks
Experimental: Briefly, after induction of diabetes by a single injection of Streptozotocin, animals were fed a high cholesterol diet. After a month of DMHC induction and acclimation, animals were randomly segregated to untreated DMHC and Darapladib-treated DMHC groups. Darapladib-treated pigs received 10 mg/kg/d of Darapladib orally. Three of the pigs were spared from DMHC induction and served as age-matched, non-DMHC normal controls. Twenty four weeks after acclimation, animals were euthanized and their brains and eyes were immediately removed. Brains were divided anteroposteriorly into anterior, middle and posterior regions. For each of these brain regions, 2-3 tissue blocks were generated for routine tissue fixation (10% formalin) or freezing and histological processing. The anterior cortical region comprised of anterior 2⁄3 of frontal lobe and anterior 1⁄3 of temporal lobe. The middle cortical region contained mid 1⁄3 of temporal lobe and anterior 1⁄2 of the parietal lobe. The posterior cortex included the posterior 1⁄2 of the parietal lobe, posterior 1⁄3 of the temporal lobe and the occipital lobe. Eyes were dissected longitudinally to sever the retina at the optic nerve. The sections were fixed in 10% formalin and embedded as flattened disc in paraffin. The tissue samples were processed using routine histology techniques. Standard Hematoxylin & Eosin (H&E) staining (FIG. 1) was carried out in retinal sections. Localization of claudin5, occludin and IgG in the cerebral cortex and retina was carried out using immunohistochemistry (IHC) as described previously. Briefly, tissue sections were deparaffinized in xylene and rehydrated in decreasing concentrations of ethanol. The antigenicity of these tissues was enhanced by microwaving in citrate buffer. Sections were treated with 3% H2O2 for 10 minutes to quench endogenous peroxidase activity. Tissues were subsequently treated with their appropriate blocking serum for 30 minutes at room temperature and then probed with anti-claudin5 (Invitrogen, Cat #35-2500, dilution 1:150) or anti-occludin (Invitrogen, Cat #71-1500, dilution 1:800) antibodies for 1 hour at room temperature. Extravasated IgG was detected using biotinylated anti-swine IgG antibody (Vector laboratories, Inc., Catalogue # BA-9020; dilution 1:100). The use of occludin antibody required pre-treatment with a protease (Sigma, Catalogue P-5147; 1.5 mg/ml) for 10 minutes at 37° C. At the end of primary antibody step, all tissue sections were thoroughly rinsed in PBS and then probed with biotin-labeled secondary antibodies [anti-mouse IgG (Vector laboratories, Catalogue # PK-6102; Dilution 1:100) for claudin5 and anti-rabbit IgG (Vector laboratories, Inc., Catalogue # PK-6101; Dilution 1:100) for occludin] for 30 minutes at room temperature. Sections were then rinsed in PBS, treated with avidin-peroxidase complex (Vectastain ABC Elite kit, Vector Laboratories, Inc., Catalogue PK-6100), washed with PBS and visualized with 3-3-diaminobenzidine-4-HCL (DAB)/H2O2 (Imm-PACT-DAB) (Dako, Code K3468). […] Slides were examined and photographed with a Nikon FXA microscope, and digital images were recorded using a Nikon DXM1200F digital camera and analyzed using MATLAB (MathWorks, Mass., USA) and NIS-elements software (Nikon, Melville, N.Y.). […] Claudin5 and occludin protein expression in pig cerebral cortex was evaluated semi-quantitatively using IHC by taking images at five random locations as described previously. Images were analyzed using MATLAB (MathWorks, Mass., USA). […]

[3] = test system: BBB; test: BBB permeability, IgG binding and Aβ42 deposition in cerebral cortex, animal model of DM and hypercholesterolemia; assay type: in vivo

CCN(CC)CCN(Cc1ccc(-c2ccc(C(F)(F)F)cc2)cc1)C(=O)Cn1c(SCc2ccc(F)cc2)nc(=O)c2c1CCC2 [Darapladib]
cell number (nuclei) in GCL [1]: comparable to controls
cell number (nuclei) in INL [1]: comparable to controls
claudin5 protein expression, anterior cortex, versus DMHC group ([2]; FIG. 7A): reduction in claudin5 expression compared to the DMHC group, but this difference did not reach statistical significance
claudin5 protein expression, anterior cortex, versus controls ([2]; FIG. 7A): significantly higher than in controls
claudin5 protein expression, middle cortex, versus DMHC only ([2]; FIG. 7B): approached statistical significance
claudin5 protein expression, middle cortex, versus controls ([2]; FIG. 7B): reduced expression of claudin5 to levels not significantly different from controls
claudin5 protein expression, posterior cortex ([2]; rank among treatment groups, FIG. 7C): highest expression of claudin5
Aβ42 deposition in cortical pyramidal neurons [3]: reverse
BBB permeability [3]: reverse
IgG binding in cortical pyramidal neurons [3]: reverse
